Test results reported in patent US8747910B2, “Prediction of response to platinum-based therapy” (Atlas Antibodies AB, priority 2009, dated 2014).

How the values were obtained:
[1] = system: epithelial ovarian cancer; assay: Gene expression analysis of ovarian cancer, recurrence free survival; type: in vivo, human; conditions: patients with tumors of high vs low RBM3 expression level; 210 serous samples; FIG. 19
Excerpt: Data was collected from a previously performed microarray study, based on a patient cohort of 285 patients diagnosed with epithelial ovarian cancer between 1992 and 2006. Institutional Review Board approval for patient consent had been obtained for all patients.
The median age of patients was 59 years (ranging from 18-79 years). The inventors decided to exclude data from 18 patients who received neoadjuvant therapy, as the inventors realized that this treatment could possibly influence RBM3 mRNA levels, and might thus lead to biased results. Further, data from 40 patients who didn't receive platinum based therapy were removed from the data set. Of these 227 samples, 210 came from patients with serous cancer, 16 with endometroid and 1 with adenocarcinoma. For statistical analysis only serous samples were considered. Pathology evaluation data existed for all patients, and recurrence free survival was evaluated for RBM3 high as well as RBM3 low mRNA content.

A2780 cells = assay: Effect of RBM3 knockdown on cisplatin resistance (WST-1 viability); type: cell-based, human; conditions: cisplatin sensitive cells with anti-RBM3 siRNA 50 nM vs non-exposed cells; cisplatin 1-100 μM; FIG. 24
Method: The human ovarian cancer cell line A2780 and the cisplatin-resistant variant A2780 Cp70 were maintained in RPMI-1640 supplemented with glutamine, 10% fetal bovine serum and 1% penicillin/streptomycin in a humidified incubator of 5% CO2 at 37° C. Cisplatin (Sigma) was dissolved in 0.9% NaCl to a stock solution of 1 mg/ml and added to cell cultures to the final concentration (1-100 μM).
Transfection with siRNA against RBM3 (Applied Biosystems, Carlsbad, Calif.) or control siRNA (Applied Biosystems) was performed with Lipofectamine 2000 (Invitrogen, Carlsbad, Calif.) with a final concentration of 50 nM siRNA.
The effect of cisplatin on cell viability was determined by the WST-1 assay as described in Examples, section 12.

[2] = system: A2780 and A2780-Cp70 cells; assay: WST-1 cell viability assay after cisplatin treatment; type: cell-based, human; conditions: A2780-cp70 compared to parental A2780; cisplatin 0-100 μM, 48 h; FIG. 23
Method: The effect of cisplatin on cell viability was determined by the WST-1 assay (Roche Applied Science) according to the manufacturer's recommendation. A2780 and A2780-Cp70 cells were seeded in 96-well plates at the density of 2500 cells/well in 100 μl appropriate medium a day before addition of cisplatin. The cells were treated with cisplatin (0-100 μM) for 48 h. Samples were made in triplicate. Ten microliters WST-1 solution was added per well and cells were incubated at 37° C. for 4 hr. The absorbance of each well was measured using a scanning multiwell spectrophotometer, ELISA reader at the wavelength of 450 nm and reference wavelength of 690 nm.

## N.N.[Cl][Pt][Cl] [cisplatin]
[1]
  recurrence free survival: significantly better recurrence free survival
A2780 cells
  viability after cisplatin treatment at low RBM3 protein expression: increased viability
[2]
  viability after cisplatin treatment: increased viability
